The results in this text go back to ChEMBL document CHEMBL1908284, “Rational use of in vitro P-glycoprotein assays in drug discovery” (J Pharmacol Exp Ther, 2001).

Starred links: 1 amine or outer side, 2 acyl side, 3 side chain; linkers in the order of their positions; H or OH if unused. Positions of bridges follow the written chain, without caps; N, C: chain ends. Non-standard residues stand in square brackets, D forms with d. Residues, ends and D or L forms follow the SMILES beside them. Chains are numbered I, II in the order given. Actinocin(9to1) = Cc1c2oc3c(C)ccc(C(=O)[*:1])c3nc-2c(C(=O)[*:2])c(N)c1=O; NMeV = CN[C@H](C(=O)O)C(C)C; Sar = CNCC(=O)O

Series [1] concerns the target T1, ATP-dependent translocase ABCB1 (Homo sapiens, UniProt P08183). Put plainly: TP_TRANSPORTER: ATP hydrolysis in MDR1-expressing Sf9 cells. Format: functional.
Series [2] concerns the target T1, ATP-dependent translocase ABCB1. Conditions: spodoptera frugiperda, sf9, 20 µM.
Description: Drug-stimulated Pgp ATPase activity ratio determined in MDR1-Sf9 cell membranes with test compound at a concentration of 20uM
The target in series [3] is T2, ATP-dependent translocase ABCB1 (MDR1) (Homo sapiens, UniProt P08183). Put plainly: in vitro. Conditions: dog.
Description: Apparent permeability (Papp) from apical to basolateral side determined in MDR1-MDCKII cells
The target in series [4] is T2, ATP-dependent translocase ABCB1 (MDR1). Put plainly: in vitro. As to conditions: dog. This is another data set of the same source.
Description: Apparent permeability (Papp) from basolateral to apical side determined in MDR1-MDCKII cells
Series [5] has the same target. Put plainly: in vitro. As to conditions: dog. This is another data set of the same source.
Description: Ratio of apparent permeability from basolateral to apical side over apical to basolateral side determined in MDR1-MDCKII cells

The term Papp A→B denotes how fast a substance crosses the layer from the apical side. High values mean fast passage, low ones slow passage. As usually defined, the Papp B→A is how fast a substance crosses the layer from the basolateral side. As a reminder, the efflux ratio is a quotient of directional permeabilities that is used to spot active efflux.
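Wherever Ratio ATPase activity is given: Compound-stimulated ATPase activity measured in membrane preparations of MDR1-expressing Sf9 cells.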

T1 sequence (P08183 whole entry): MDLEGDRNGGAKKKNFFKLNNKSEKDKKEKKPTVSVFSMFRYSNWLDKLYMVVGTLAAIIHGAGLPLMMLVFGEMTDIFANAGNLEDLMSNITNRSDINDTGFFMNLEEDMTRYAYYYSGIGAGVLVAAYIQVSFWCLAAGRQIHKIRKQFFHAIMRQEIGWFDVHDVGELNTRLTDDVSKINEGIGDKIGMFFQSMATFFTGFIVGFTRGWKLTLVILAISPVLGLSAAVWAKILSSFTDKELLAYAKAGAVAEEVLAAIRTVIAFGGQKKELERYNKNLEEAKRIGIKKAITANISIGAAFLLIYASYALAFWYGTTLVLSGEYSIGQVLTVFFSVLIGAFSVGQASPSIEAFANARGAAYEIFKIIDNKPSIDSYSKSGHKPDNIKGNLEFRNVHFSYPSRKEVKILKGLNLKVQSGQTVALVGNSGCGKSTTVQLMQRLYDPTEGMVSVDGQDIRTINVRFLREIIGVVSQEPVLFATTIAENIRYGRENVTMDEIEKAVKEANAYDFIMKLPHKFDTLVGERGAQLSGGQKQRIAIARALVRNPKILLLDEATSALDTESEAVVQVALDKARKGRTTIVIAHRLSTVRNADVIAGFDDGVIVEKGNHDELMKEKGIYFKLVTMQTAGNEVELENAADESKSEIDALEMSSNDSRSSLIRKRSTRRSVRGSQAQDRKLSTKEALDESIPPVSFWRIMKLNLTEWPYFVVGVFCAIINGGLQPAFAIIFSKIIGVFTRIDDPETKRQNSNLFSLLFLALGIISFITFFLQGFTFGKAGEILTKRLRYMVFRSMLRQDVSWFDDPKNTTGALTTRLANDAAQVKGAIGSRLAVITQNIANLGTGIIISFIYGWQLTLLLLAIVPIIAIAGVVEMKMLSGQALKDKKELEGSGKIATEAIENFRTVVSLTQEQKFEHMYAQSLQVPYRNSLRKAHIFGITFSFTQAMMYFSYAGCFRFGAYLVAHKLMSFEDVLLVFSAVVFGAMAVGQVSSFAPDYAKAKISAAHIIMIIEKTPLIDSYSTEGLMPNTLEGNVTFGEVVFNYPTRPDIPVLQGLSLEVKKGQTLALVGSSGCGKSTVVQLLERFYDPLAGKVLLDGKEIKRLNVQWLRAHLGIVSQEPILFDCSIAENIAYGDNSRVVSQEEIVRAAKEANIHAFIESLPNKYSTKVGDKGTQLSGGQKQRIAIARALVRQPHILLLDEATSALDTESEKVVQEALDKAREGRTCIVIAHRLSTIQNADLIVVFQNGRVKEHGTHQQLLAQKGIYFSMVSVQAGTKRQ
T2 sequence (P08183 whole entry): as above

For `Cc1c2oc3c(C)ccc(C(=O)N[C@@H]4C(=O)N[C@H](C(C)C)C(=O)N5CCC[C@H]5C(=O)N(C)CC(=O)N(C)[C@@H](C(C)C)C(=O)O[C@@H]4C)c3nc-2c(C(=O)N[C@@H]2C(=O)N[C@H](C(C)C)C(=O)N3CCC[C@H]3C(=O)N(C)CC(=O)N(C)[C@@H](C(C)C)C(=O)O[C@@H]2C)c(N)c1=O` [DACTINOMYCIN] (I: T[dV]P[Sar][NMeV] / II: T[dV]P[Sar][NMeV]; ester I:1-I:C, II:1-II:C; linker I:N-II:N via Actinocin(9to1)), the Activity entry in series [1] was “is not a substrate [-]”. The molecule further registered a Ratio_ATPase activity in series [2] of 1.2. In series [3] (MDCK-MDR1, Papp), this molecule displayed a Papp A→B below 0.021 ×10⁻⁶ cm/s. Besides, the Papp B→A in series [4] (MDCK-MDR1, Papp) turned out to be 1.6 ×10⁻⁶ cm/s. Further, the efflux ratio in series [5] (MDCK-MDR1, Ratio_Papp) is above 80.
For `CC[C@]1(O)C[C@H]2CN(CCc3c([nH]c4ccccc34)[C@@](C(=O)OC)(c3cc4c(cc3OC)N(C=O)[C@H]3[C@@](O)(C(=O)OC)[C@H](OC(C)=O)[C@]5(CC)C=CCN6CC[C@]43[C@@H]65)C2)C1` [VINCRISTINE], the Activity entry in series [1] was “is not a substrate [-]”. The same molecule registered a Ratio_ATPase activity in series [2] of 1.46. Further, the Papp A→B in series [3] (MDCK-MDR1, Papp) came out at 0.236 ×10⁻⁶ cm/s. The molecule further showed a Papp B→A in series [4] (MDCK-MDR1, Papp) of 1.49 ×10⁻⁶ cm/s. The efflux ratio in series [5] (MDCK-MDR1, Ratio_Papp) was found to be 6.31.
The like results for `CC[C@H]1OC(=O)[C@H](C)[C@@H](O[C@H]2C[C@@](C)(OC)[C@@H](O)[C@H](C)O2)[C@H](C)[C@@H](O[C@@H]2O[C@H](C)C[C@H](N(C)C)[C@H]2O)[C@](C)(OC)C[C@@H](C)C(=O)[C@H](C)[C@@H](O)[C@]1(C)O` [CLARITHROMYCIN] were, in that order, “substrate [+]”, 3.55, 1.08 ×10⁻⁶ cm/s, 33.6 ×10⁻⁶ cm/s and 31.3.
On to `CCOC(=O)C1=C(C)NC(C)=C(C(=O)OC)C1c1cccc([N+](=O)[O-])c1` (stereo not given) [NITRENDIPINE], for which, in series [1], the Activity entry is “substrate [+]”. The molecule further came in with a Ratio_ATPase activity in series [2] of 3.22. This molecule came in with a Papp A→B in series [3] (MDCK-MDR1, Papp) of 60.4 ×10⁻⁶ cm/s. For the same molecule, the Papp B→A in series [4] (MDCK-MDR1, Papp) was 48.3 ×10⁻⁶ cm/s. Moreover, the efflux ratio in series [5] (MDCK-MDR1, Ratio_Papp) is 0.8.
On the same counts, the results for `CC(C)(C)NC(=O)[C@@H]1CN(Cc2cccnc2)CCN1C[C@@H](O)C[C@@H](Cc1ccccc1)C(=O)N[C@H]1c2ccccc2C[C@H]1O.O` are “substrate [+]”, 9.59, 0.869 ×10⁻⁶ cm/s, 17.6 ×10⁻⁶ cm/s and 20.3.
As to `COc1cc2c(c(OC)c1OC)-c1ccc(OC)c(=O)cc1[C@@H](NC(C)=O)CC2` [COLCHICINE], the Activity result in series [1] was “is not a substrate [-]”. Moreover, the Ratio_ATPase activity in series [2] stood at 1.23. Also, the Papp A→B in series [3] (MDCK-MDR1) amounted to 1.79 ×10⁻⁶ cm/s. Moreover, the Papp B→A in series [4] (MDCK-MDR1) is 20.2 ×10⁻⁶ cm/s. In addition, the efflux ratio in series [5] (MDCK-MDR1) was determined as 11.3.
In the case of `COc1ccc(C[C@H](N)C(=O)N[C@H]2[C@@H](O)[C@H](n3cnc4c(N(C)C)ncnc43)O[C@@H]2CO)cc1` [PUROMYCIN], the Activity entry in series [1] is “is not a substrate [-]”. The Ratio_ATPase activity in series [2] worked out at 1.21. The same molecule came in with a Papp A→B in series [3] (MDCK-MDR1, Papp) of 1.15 ×10⁻⁶ cm/s. The Papp B→A in series [4] (MDCK-MDR1, Papp) turned out to be 3.56 ×10⁻⁶ cm/s. For the same molecule, in series [5] (MDCK-MDR1, Ratio_Papp), the efflux ratio was found to be 3.1.
On the same counts, the results for `CCN(CC)CCCC(C)Nc1ccnc2cc(Cl)ccc12` (stereo not given) [CHLOROQUINE] are “is not a substrate [-]”, 0.77, 4.49 ×10⁻⁶ cm/s, 17.2 ×10⁻⁶ cm/s and 3.83.
Take `CN1CCC[C@@H]1Cc1c[nH]c2ccc(CCS(=O)(=O)c3ccccc3)cc12`: the Activity entry in series [1] was “substrate [+]”. Besides, the Ratio_ATPase activity in series [2] is 2.22. In addition, in series [3] (MDCK-MDR1, Papp), the Papp A→B was determined as 1.84 ×10⁻⁶ cm/s. The same molecule registered a Papp B→A in series [4] (MDCK-MDR1, Papp) of 57.8 ×10⁻⁶ cm/s. The efflux ratio in series [5] (MDCK-MDR1, Ratio_Papp) is 31.5.
`Cc1ncc2n1-c1ccc(Cl)cc1C(c1ccccc1F)=NC2` [MIDAZOLAM]: the Activity entry in series [1] is “substrate [+]”. This molecule also displayed a Ratio_ATPase activity in series [2] of 3.82. Moreover, the Papp A→B in series [3] (MDCK-MDR1) came to 70.1 ×10⁻⁶ cm/s. The molecule further showed a Papp B→A in series [4] (MDCK-MDR1) of 56.4 ×10⁻⁶ cm/s. The efflux ratio in series [5] (MDCK-MDR1) was determined as 0.81.
